Test results from patent US6255517A, “Thymol derivatives having anti-tumor activity, and anti-cancer agent comprising the same” (Zee; Ok Pyo, priority 1998, dated 2001).
Read-outs that look alike come from different tables or passages of the source.

Experiments:
Assay type in all cases: cell-based
SK-MEL-2 = assay: SRB cytotoxicity (anti-tumor activity) in vitro, SK-MEL-2; conditions: Homo sapiens, SK-MEL-2 malignant melanoma, 48 hours, read-out: ED50 (the source's name)
Description: (§1) Anti-Tumor (Cyto-Toxicity) Effect in vitro of the Compound According to the Present Invention
(§2) The method for detecting cyto-toxicity employed in the present experiment is Sulforhodamin B Bioassay (SRB) method, which was developed by National Cancer Institute (NCI) in the United States in 1989, for the purpose of measuring anti-tumor activity in vitro.
(§3) The tumor cells used in the experiments via SRB method are listed below:
SK-MEL-2: malignant melanoma, metastasis to skin of thigh
(§4) The tumor cells listed above are all human tumor cell-lines, which were distributed from NCI in the United States and subcultured in Korea Chemical Institute. As a culture medium, RPMI 1640 culture medium supplemented with 5% FBS (fetal bovine serum) was used. Cultivation was performed in an 5% CO2 incubator with constant temperature (37° C.) and humidity. The subculture was carried out every three or four days, and a solution of 0.25% tyrosine and 3 mM trans-1,2-diaminocyclohexane-n,n,n,n-tetracetic acid (CDTA) dissolved in PBS (phosphate buffered saline) was used in order to release cells from the surface of the container.
(§5) The test compound synthesized according to the present invention was diluted to have a concentration of 30.0 μg/ml, 10.0 μg/ml, 3.0 μg/ml, 1.0 μg/ml, 0.3 μg/ml and 0.1 μg/ml, respectively, and the cyto-toxicity (anti-tumor activity) of the compound was measured. The maximum concentration of the sample was not more than 30.0 μg/ml. In order to prepare the samples for detection, DMSO (dimethylsulfoxide) was used, if necessary. The concentration of DMSO added was not more than 0.5%. Before added to the tumor cells, the sample solution, which was diluted via several steps, is filtered through a Millipore filter. In a sterile condition, the sample for detecting cyto-toxicity was prepared by means of SRB method using human tumor cell-lines such as A549, SK-OV-3, SK-MEL-2, XF498 and HCT15.
(§6) The subcultured tumor cells were released from the surface of instrument by using tyrosine-CDTA solution, and then charged on a 96-well flat bottom microplate to make the cell number 5×10^3 (A549, HCT15), 1×10^4 (SK-MEL-2, XF498) and 2×10^4 (SK-OV-3) for each cell. The tumor cells are attached on the bottom by cultivating in a CO2 incubator. After removing the culture medium by using an aspirator, the medium is eliminated by using log dose of six concentrations. To each well, 100 μl of 10% TCA (trichloroacetic acid) is added, and the plate was left for 1 hour at 4° C. to fix the cells on the bottom surface of the plate.
(§7) Then, the plate was washed with distilled water 5-6 times to completely remove the residual TCA solution, and dried up at room temperature. To each well of the completely dried plate, 100 μl of dye solution, in which 0.4% SRB solution was dissolved, was added to dye the cells for 30 minutes, and the cells were washed with 1% acetic acid to remove excess SRB which was not combined with the cells. The dyed cell plates were dried at room temperature, and 100 μl of 10 mM trisma base solution was added to each well. The solution was mixed by a titer plate shaker for 10 minutes to elute the dye solution. Then, the absorbance at 520 nm was measured by using a microplate reader.
(§8) In order to calculate the cyto-toxicity (anti-tumor activity) of the samples on tumor cells, the number of tumor cells at the point of adding the sample (Tz, zero time), the number of cells when only an excess amount of culture medium was added instead of the sample and cultured for 48 hours (C, control), and the number of cells when each concentration of the sample was added and cultured for 48 hours (T, test) were measured respectively. The cyto-toxicity was determined according to the following formulas:
(§9) When Tz>T: [(T-Tz)/(C-Tz)]×100
(§10) When Tz<T: [(T-Tz)/Tz]×100
(§11) From the calculated values thus obtained, ED50 (50% effective dose) [the concentration when the sample inhibits 50% of the growth of the tumor cells] was determined by the use of data regression tool of LOTUS program. […]

A549 = assay: SRB cytotoxicity (anti-tumor activity) in vitro, A549; conditions: Homo sapiens
Description: as §1, §2, §3
A549: non small cell lungcarcinoma
as §4, §5, §6, §7, §8, §9, §10, §11

SK-OV-3 = assay: SRB cytotoxicity (anti-tumor activity) in vitro, SK-OV-3; conditions: Homo sapiens, SK-OV-3 ovary adenocarcinoma, 48 hours, read-out: ED50 (the source's name)
Description: as §1, §2, §3
SK-OV-3: adenocarcinoma, ovary malignant ascites
as §4, §5, §6, §7, §8, §9, §10, §11

HCT15 = assay: SRB cytotoxicity (anti-tumor activity) in vitro, HCT15; conditions: Homo sapiens, HCT-15, HCT15 colon adenocarcinoma, 48 hours, read-out: ED50 (the source's name)
Description: as §1, §2, §3
HCT15: colon adenocarcinoma
as §4, §5, §6, §7, §8, §9, §10, §11

XF498 = assay: SRB cytotoxicity (anti-tumor activity) in vitro, XF498; conditions: Homo sapiens, XF498 central nerve system tumor, 48 hours, read-out: ED50 (the source's name)
Description: as §1, §2, §3
XF498: central nerve system tumor
as §4, §5, §6, §7, §8, §9, §10, §11

[1] = A549 non small cell lung carcinoma, SRB, 48 hours, read-out: ED50 (the source's name)

SMILES	IC50 (SK-MEL-2)	IC50 (A549; [1])	IC50 (SK-OV-3)	IC50 (HCT15)	IC50 (XF498)	IC50 (A549; A549, 48 h, read-out: ED50)
C=C(CO)c1ccc(C)cc1OS(=O)(=O)c1ccc(C)cc1 [Compound 35-3, 2-(2-(4'-Toluenesulfoxy)-4-methylphenyl)-prop-2-ene-1-ol]	17.9 µM	13.1 µM	14.6 µM	13.9 µM	14 µM	–
Cc1ccc(C2(COC(=O)Cc3ccccc3)CO2)c(OC(=O)C(C)C)c1 (stereo not shown) [Compound 11-1, 10-Phenylacetoxy-8,9-epoxythymol isobutyrate]	10.5 µM	–	7.9 µM	9.5 µM	32.5 µM	35.5 µM
Cc1ccc(C2(COC(=O)C(C)C)CO2)c(OC(=O)C(C)C)c1 (stereo not shown) [Compound 11, 10-isobutyryloxy-8,9-epoxythymol isobutyrate]	11.6 µM	40.5 µM	8.3 µM	10.8 µM	37.2 µM	–
CC(=O)Oc1cc(C)ccc1C(O)(CO)COC(=O)c1ccc([N+](=O)[O-])cc1 (stereo not shown) [Compound 15-6, 10-(4-Nitrobenzoxy)-8,9-dihydroxythymol acetate]	10.9 µM	> 100 µM	19.6 µM	10.4 µM	40.9 µM	–
CC(=O)Oc1cc(C)ccc1C(O)(CO)COC(=O)Cc1ccc([N+](=O)[O-])cc1 (stereo not shown) [Compound 15-2, 10-(4-Nitrophenylacetoxy)-8,9-dihydroxythymol acetate]	12.8 µM	> 100 µM	25.8 µM	20.2 µM	45.1 µM	–
CC(=O)Oc1ccccc1C1(COC(=O)Cc2ccc([N+](=O)[O-])cc2)CO1 (stereo not shown) [Compound 33-2]	14.2 µM	44.3 µM	24.4 µM	17.3 µM	16.4 µM	–
Cc1ccc(C2(COC(=O)Cc3ccc([N+](=O)[O-])cc3)CO2)c(OC(=O)C(C)C)c1 (stereo not shown) [Compound 11-2, 10-(4-Nitrophenylacetoxy)-8,9-epoxythymol isobutyrate]	9.9 µM	32.1 µM	14 µM	8.7 µM	28.4 µM	–
C=C(COS(=O)(=O)c1ccc(OC)cc1)c1ccc(C)cc1OC(C)=O [13'-3, 10-(4-Methoxybenzenesulfoxy)-8,9-methylenethymol acetate]	8.4 µM	28.2 µM	27.4 µM	2.6 µM	–	–
C=C(CO)c1ccc(C)cc1OCc1ccc(C)cc1 [Compound 35-2, 2-(2-(4'-Methylbenzyloxy)-4-methylphenyl)-prop-2-ene-1-ol]	8.8 µM	10.9 µM	9.6 µM	9.1 µM	7.2 µM	–
CC(=O)OCC1(c2ccc(OC(C)=O)cc2OC(C)=O)CO1 (stereo not shown) [Compound 27-5, 2-(2',4'-Diacetoxyphenyl)-3-acetoxy-1,2-epoxypropane]	4.8 µM	18.6 µM	2.9 µM	1.4 µM	5 µM	–
C=C(CO)c1ccc(C)cc1OCc1ccc(OC)cc1 [Compound 35-1]	12.7 µM	10.6 µM	13.1 µM	12.1 µM	11.8 µM	–
CC(=O)Oc1cc(C)ccc1C(O)(CO)COC(=O)Cc1ccccc1 (stereo not shown) [Compound 15-1, 10-Phenylacetoxy-8,9-dihydroxythymol acetate]	14.8 µM	–	39.9 µM	11.6 µM	59.9 µM	> 100 µM
CC(=O)Oc1ccccc1C1(COC(=O)c2ccc(C)cc2)CO1 (stereo not shown) [Compound 33-6]	6.9 µM	41.4 µM	10.6 µM	9.3 µM	8.7 µM	–
CC(=O)Oc1ccccc1C1(COC(=O)c2ccccc2)CO1 (stereo not shown) [Compound 33-5]	8.5 µM	43.3 µM	9.9 µM	7 µM	6.2 µM	–
CC(=O)Oc1cc(C)ccc1C1(COC(=O)Cc2ccc([N+](=O)[O-])cc2)CO1 (stereo not shown) [Compound 14-3, 10-(4-Nitrophenylacetoxy)-8,9-epoxythymol acetate]	11 µM	38.3 µM	25.6 µM	10.6 µM	35.4 µM	–
CC(=O)Oc1ccc(C2(COC(=O)Cc3ccc([N+](=O)[O-])cc3)CO2)c(OC(C)=O)c1 (stereo not shown) [Compound 27-2, 2-(2',4'-Diacetoxyphenyl)-3-(4-nitrophenylacetoxy)-1,2-epoxypropane]	3.8 µM	23.5 µM	2.7 µM	2.4 µM	4.1 µM	–
Cc1ccc(C(O)(CO)COC(=O)Cc2ccc(F)cc2)c(OC(=O)C(C)C)c1 (stereo not shown) [Compound 15-8, 10-(4-Fluorophenylacetoxy)-8,9-dihydroxythymol isobutyrate]	10.8 µM	> 100 µM	24.2 µM	12.2 µM	55.9 µM	–
Cc1ccc(C2(COC(=O)Cc3ccc(F)cc3)CO2)c(OC(=O)C(C)C)c1 (stereo not shown) [Compound 11-3, 10-(4-Fluorophenylacetoxy)-8,9-epoxythymol isobutyrate]	3.7 µM	10.7 µM	1 µM	0.6 µM	3.1 µM	–
CC(=O)Oc1ccc(C2(COC(=O)Cc3ccc(F)cc3)CO2)c(OC(C)=O)c1 (stereo not shown) [Compound 27-3, 2-(2',4'-Diacetoxyphenyl)-3-(4-fluorophenylacetoxy)-1,2-epoxypropane]	9.3 µM	36.7 µM	3.9 µM	4.5 µM	11 µM	–
CC(=O)OCC1(c2ccc(C)cc2OC(C)=O)CO1 (stereo not shown) [Compound 14-8, 10-Acetoxy-8,9-epoxythymol acetate]	14.9 µM	51.2 µM	12.6 µM	13.3 µM	45.5 µM	–
COc1ccc(CC(=O)OCC(O)(CO)c2ccc(C)cc2OC(C)=O)cc1 (stereo not shown) [Compound 15-4, 10-(4-Methoxyphenylacetoxy)-8,9-dihydroxythymol acetate]	12 µM	> 100 µM	21.3 µM	11.2 µM	55.7 µM	–
COc1ccc(C(=O)OCC(O)(CO)c2ccc(C)cc2OC(C)=O)cc1 (stereo not shown) [Compound 15-7, 10-(4-Methoxybenzoxy)-8,9-dihydroxythymol acetate]	14.9 µM	> 100 µM	38.2 µM	15 µM	63.3 µM	–
CC(=O)Oc1ccccc1C1(COC(=O)Cc2ccccc2)CO1 (stereo not shown) [Compound 33-1]	9.3 µM	–	11.5 µM	10.4 µM	9.8 µM	42.8 µM
CC(=O)Oc1ccc(C2(COC(=O)Cc3ccccc3)CO2)c(OC(C)=O)c1 (stereo not shown) [Compound 27-1, 2-(2',4'-Diacetoxyphenyl)-3-phenylacetoxy-1,2-epoxypropane]	4.5 µM	–	2.9 µM	3 µM	4.7 µM	30.6 µM
CC(=O)Oc1cc(C)ccc1C(O)(CO)COC(=O)c1ccccc1 (stereo not shown) [Compound 15-5, 10-Benzoxy-8,9-dihydroxythymol acetate]	16.6 µM	> 100 µM	35.1 µM	12.7 µM	60.4 µM	–
